From ChEMBL document CHEMBL1201862, “PubChem BioAssay data set” (2004)
Calls of active or inactive are those of the source.

Experiments:
[1] = viability of uninfected HEp-2 cells – cell-based, HTS, cytotoxicity control for RSV inhibitor project, dose response (AID 2410); type: functional; details: human respiratory syncytial virus
[2] = biological target: T1, Sentrin-specific protease 6 (Homo sapiens, UniProt Q9GZR1); assay: inhibition of human SENP6 catalytic domain – biochemical, luminescence, set 2, SAR follow-up (AID 588598); type: functional
T1 sequence (Q9GZR1 whole entry): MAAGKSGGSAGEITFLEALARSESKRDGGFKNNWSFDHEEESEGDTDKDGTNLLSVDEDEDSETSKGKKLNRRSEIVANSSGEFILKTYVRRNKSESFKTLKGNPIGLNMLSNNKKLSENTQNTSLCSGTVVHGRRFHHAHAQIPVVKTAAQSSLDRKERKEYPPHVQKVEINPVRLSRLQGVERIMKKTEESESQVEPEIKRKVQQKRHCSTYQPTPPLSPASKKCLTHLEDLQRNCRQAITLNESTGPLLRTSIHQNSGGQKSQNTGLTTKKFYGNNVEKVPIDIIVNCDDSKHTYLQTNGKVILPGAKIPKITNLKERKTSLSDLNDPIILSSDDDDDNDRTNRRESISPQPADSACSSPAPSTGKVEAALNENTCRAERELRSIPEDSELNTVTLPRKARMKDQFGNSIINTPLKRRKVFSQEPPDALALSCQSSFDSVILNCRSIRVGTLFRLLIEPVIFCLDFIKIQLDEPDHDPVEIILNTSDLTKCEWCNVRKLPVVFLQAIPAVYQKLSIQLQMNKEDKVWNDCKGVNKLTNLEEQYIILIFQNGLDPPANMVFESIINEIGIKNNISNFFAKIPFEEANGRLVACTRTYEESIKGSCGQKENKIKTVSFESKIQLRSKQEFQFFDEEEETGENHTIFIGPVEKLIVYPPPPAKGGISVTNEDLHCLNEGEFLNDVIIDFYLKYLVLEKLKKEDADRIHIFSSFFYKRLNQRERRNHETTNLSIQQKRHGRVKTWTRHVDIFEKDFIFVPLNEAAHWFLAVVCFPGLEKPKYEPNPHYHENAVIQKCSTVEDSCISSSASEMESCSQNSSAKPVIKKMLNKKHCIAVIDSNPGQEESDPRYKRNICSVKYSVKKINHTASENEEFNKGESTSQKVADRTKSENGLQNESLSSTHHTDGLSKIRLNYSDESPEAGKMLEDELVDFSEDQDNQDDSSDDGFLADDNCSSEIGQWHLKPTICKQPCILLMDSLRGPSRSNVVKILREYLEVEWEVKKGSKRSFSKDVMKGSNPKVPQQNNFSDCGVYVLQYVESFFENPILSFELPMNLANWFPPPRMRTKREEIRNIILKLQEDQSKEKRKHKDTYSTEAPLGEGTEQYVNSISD

Caspase-3 = biological target: T2, Caspase-3 (Homo sapiens, UniProt P42574); assay: inhibition of recombinant caspase-3 activity – biochemical, luminescence, set 2, selectivity assay for SENP protease inhibitor project, SAR follow-up (AID 588599); type: functional
T2 sequence (P42574 whole entry): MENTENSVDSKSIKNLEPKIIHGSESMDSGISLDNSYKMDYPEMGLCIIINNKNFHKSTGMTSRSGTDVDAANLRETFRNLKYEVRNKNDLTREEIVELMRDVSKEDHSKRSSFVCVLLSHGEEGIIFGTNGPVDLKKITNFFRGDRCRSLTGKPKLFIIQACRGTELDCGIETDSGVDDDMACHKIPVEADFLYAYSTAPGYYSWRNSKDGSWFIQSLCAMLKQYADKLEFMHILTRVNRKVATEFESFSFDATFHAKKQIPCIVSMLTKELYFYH

[3] = biological target: Neurotensin receptor type 1 (Homo sapiens, UniProt P30989); type: functional;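 further: Image-based confirmatory dose-response assay measuring agonist activity at NTR1; NTR1-expressing U2OS osteosarcoma cells imaged for beta-arrestin GFP spot formation; agonist potency where compounds increase beta-arrestin recruitment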
[4] = biological target: T3, Sentrin-specific protease 8 (Homo sapiens, UniProt Q96LD8); assay: inhibition of sentrin protease 8 – biochemical, luminescence, set 2, SAR follow-up (AID 588601); type: functional
T3 sequence (Q96LD8 whole entry): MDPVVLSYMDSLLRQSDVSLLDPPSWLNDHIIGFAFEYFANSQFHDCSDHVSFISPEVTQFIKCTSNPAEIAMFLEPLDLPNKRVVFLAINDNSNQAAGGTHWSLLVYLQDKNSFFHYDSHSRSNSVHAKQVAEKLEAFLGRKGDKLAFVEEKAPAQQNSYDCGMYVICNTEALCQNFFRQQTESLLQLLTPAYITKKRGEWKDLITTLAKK

[5] = Luminescence Cell-Based Dose Retest to Confirm Inhibitors of Cancer Stem Cells. [Related pubchem assays (depositor defined):AID2717, AID2721]; type: functional; details: Homo sapiens
Melanocortin receptor 4 = Melanocortin receptor 4 (Homo sapiens, UniProt P32245); type: functional, cell-based;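 further: Cell-based assay with luminescence read-out, confirmatory dose-response testing for agonist activity of biased ligands at MC4R; human U2OS cells with tagged receptor and beta-arrestin; potency of agonists that increase receptor coupling to beta-arrestin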
[6] = biological target: T4, Sentrin-specific protease 7 (Homo sapiens, UniProt Q9BQF6); assay: inhibition of human SENP7 cleavage activity – biochemical, luminescence, set 2, SAR follow-up (AID 588600); type: functional
T4 sequence (Q9BQF6 whole entry): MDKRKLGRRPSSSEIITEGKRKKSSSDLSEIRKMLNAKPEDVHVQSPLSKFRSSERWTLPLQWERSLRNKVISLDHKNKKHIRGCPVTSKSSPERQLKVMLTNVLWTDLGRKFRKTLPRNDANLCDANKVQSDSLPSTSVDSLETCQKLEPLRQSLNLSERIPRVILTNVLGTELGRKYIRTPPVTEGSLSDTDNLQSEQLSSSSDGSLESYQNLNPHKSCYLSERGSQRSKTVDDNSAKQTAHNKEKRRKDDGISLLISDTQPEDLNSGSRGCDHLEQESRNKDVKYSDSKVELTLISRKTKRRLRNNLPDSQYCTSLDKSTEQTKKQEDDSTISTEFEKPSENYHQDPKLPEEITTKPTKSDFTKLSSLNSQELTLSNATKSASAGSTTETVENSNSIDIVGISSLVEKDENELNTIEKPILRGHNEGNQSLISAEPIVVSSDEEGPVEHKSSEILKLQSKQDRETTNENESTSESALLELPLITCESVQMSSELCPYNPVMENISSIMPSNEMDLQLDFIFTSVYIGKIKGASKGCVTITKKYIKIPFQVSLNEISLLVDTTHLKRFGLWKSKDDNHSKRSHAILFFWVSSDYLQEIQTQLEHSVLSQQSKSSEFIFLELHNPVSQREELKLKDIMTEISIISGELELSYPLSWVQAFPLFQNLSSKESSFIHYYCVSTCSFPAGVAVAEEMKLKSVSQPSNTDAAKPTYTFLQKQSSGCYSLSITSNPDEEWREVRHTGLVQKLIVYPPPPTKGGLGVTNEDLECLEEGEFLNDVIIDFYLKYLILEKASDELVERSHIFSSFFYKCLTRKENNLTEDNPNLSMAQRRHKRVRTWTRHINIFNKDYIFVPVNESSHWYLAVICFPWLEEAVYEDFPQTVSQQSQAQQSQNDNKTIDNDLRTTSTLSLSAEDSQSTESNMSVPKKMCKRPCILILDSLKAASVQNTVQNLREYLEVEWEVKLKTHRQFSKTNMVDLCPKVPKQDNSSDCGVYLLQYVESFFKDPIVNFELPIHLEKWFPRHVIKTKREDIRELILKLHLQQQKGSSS

[7] = biological target: Heat shock protein HSP 90-alpha (Homo sapiens, UniProt P07900); type: functional, organism-based
BJ = assay: growth inhibition of engineered Ras-driven BJ cells – cell-based, alamar blue fluorescence, cherrypicked samples, dose response (AID 2631); type: functional; details: Homo sapiens;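 further: confirmatory dose-response assay in RAS-dependent BJ fibroblasts engineered with TERT, LT and ST, with cytotoxicity read by fluorescence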
X-box-binding protein 1 = X-box-binding protein 1 (Homo sapiens, UniProt P17861); type: functional, Cricetulus griseus;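 further: confirmatory dose-response counter-screen serving a CHOP assay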
[8] = biological target: DNA damage-inducible transcript 3 protein (Mus musculus, UniProt P35639); type: functional, Cricetulus griseus
HeLa = assay: Cytotoxicity counterscreen assay for transcriptional activators of heat shock protein 70 (Hsp70). [Related pubchem assays: 1203, 1252 ]; type: functional; details: Homo sapiens
[9] = microbe, parasite or virus in culture; type: functional; details: Mycobacterium tuberculosis
A-375 = assay: MITF: Counter assay: A375 proliferation Measured in Cell-Based System Using Plate Reader - 2084-03_Inhibitor_Dose_DryPowder_Activity. [Related pubchem assays (depositor defined):AID488944]; type: functional; details: Homo sapiens
[10] = biological target: Hepatocyte nuclear factor 4-alpha (Homo sapiens, UniProt P41235); type: functional, cell-based;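 further: biochemical luminescence-based dose-response counterscreen measuring inhibition of HNF4 dimerization, run alongside a screen for blockers of ABHD5–perilipin-5 interaction; split luciferase complementation of HNF4 fusion proteins in cell lysate measuring dimerization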
[11] = biological target: Type-1 angiotensin II receptor (Homo sapiens, UniProt P30556); assay: antagonism of angiotensin II type 1 receptor – cell-based, uHTS hits, selectivity assay for APJ receptor antagonist project, dose response (AID 463214); type: functional;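 further: antagonist potency against angiotensin II stimulated AT1 response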
Beta-galactosidase = Beta-galactosidase (Escherichia coli, UniProt Q8VNN2); assay: PubChem AID 485352; type: functional
[12] = biological target: Latent membrane protein 1 (Human herpesvirus 4 (strain B95-8), UniProt P03230); assay: LMP1 TES1 pathway selectivity over dsRED control – imaging, HEK293T, dual-color eGFP/dsRED, cherry-picks, selectivity assay for LMP1 NF-kB inhibitor project, dose response (AID 588398); type: functional, cell-based
[13] = biological target: Voltage-gated inwardly rectifying potassium channel KCNH2 (Homo sapiens, UniProt Q12809); details: Potency;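 further: confirmatory quantitative high-throughput screen measuring inhibition of hERG channel activity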
[14] = biological target: T5, Beta-adrenergic receptor kinase 1 (Homo sapiens, UniProt P25098); assay: blockers of aptamer binding to GRK2 – biochemical, flow cytometry beads, FAM-aptamer, powder set 1, dose response (AID 588720)
Jurkat = assay: blockers of NF-kB activation in T cells – Jurkat, luciferase reporter, luminescence, B- and T-cell, dose response (AID 489004); type: functional, cell-based; details: Homo sapiens;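 further: NF-kB luciferase reporter Jurkat cells stimulated with PMA plus ionomycin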
INS1 = assay: INS-1E survival protection against cytokine death – cell-based, luminescence, retest, dose response (AID 449756); type: functional; details: Rattus norvegicus;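 further: cell death triggered by IL-1 beta plus TNF-alpha plus IFN-gamma mixture; protective hits raise ATP signal compared with cytokine alone wells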
[15] = HEK-293T viability loss, compound-treated – cell-based, uHTS hits, cytotoxicity control for B/T-cell NF-kB inhibitor project, dose response (AID 489019); type: functional;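 further: IC50 reflects cytotoxicity as loss of cell viability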
[16] = biological target: T6, Heat shock factor protein 1 (Mus musculus, UniProt P38532); assay: decrease of HSF1-responsive luciferase luminescence – cell-based, NIH3T3, dose retest, confirmation (AID 2382); type: functional;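 further: NIH3T3 fibroblasts with HSF1-driven luciferase reporter stressed by proteasome inhibitor MG132; luminescence from HSF1-driven luciferase expression after 8 hours of MG132 stress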
T6 sequence (P38532 whole entry): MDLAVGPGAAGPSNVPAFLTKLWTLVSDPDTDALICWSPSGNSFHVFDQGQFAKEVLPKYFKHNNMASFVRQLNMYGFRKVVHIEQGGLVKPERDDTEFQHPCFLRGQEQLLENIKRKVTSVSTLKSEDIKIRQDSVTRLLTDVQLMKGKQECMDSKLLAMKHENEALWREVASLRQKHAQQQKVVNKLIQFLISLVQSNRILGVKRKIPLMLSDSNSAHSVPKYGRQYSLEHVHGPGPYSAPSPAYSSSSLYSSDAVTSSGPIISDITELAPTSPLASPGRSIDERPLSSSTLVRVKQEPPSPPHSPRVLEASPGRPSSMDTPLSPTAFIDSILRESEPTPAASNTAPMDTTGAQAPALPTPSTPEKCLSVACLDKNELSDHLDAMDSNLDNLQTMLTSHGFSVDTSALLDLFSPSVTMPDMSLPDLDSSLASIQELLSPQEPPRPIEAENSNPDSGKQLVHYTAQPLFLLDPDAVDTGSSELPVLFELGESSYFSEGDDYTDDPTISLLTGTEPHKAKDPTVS

[17] = biological target: Photoreceptor-specific nuclear receptor (Homo sapiens, UniProt Q9Y5X4); assay: ligands suppressing NR2E3 nuclear receptor activity – biochemical, TR-FRET, dose response (AID 463256); type: functional
[18] = biological target: Peroxisome proliferator-activated receptor gamma/Nuclear receptor corepressor 2 (Homo sapiens, UniProt P37231+Q9Y618); assay: Counterscreen for NR2E3 inverse agonists: TR-FRET-based biochemical high throughput dose response assay to identify inverse agonists of the interaction between peroxisome proliferator-activated receptor gamma (PPARg) and nuclear receptor co-repressor 2 (NCOR2).; type: functional
[19] = biological target: T7, Carboxy-terminal domain RNA polymerase II polypeptide A small phosphatase 1 (Homo sapiens, UniProt Q9GZU7); assay: CTDSP1 inhibitors, concentration-response, biochemical, absorbance readout, ultra-high-throughput screen actives (AID 540297); type: functional
T7 sequence (Q9GZU7 whole entry): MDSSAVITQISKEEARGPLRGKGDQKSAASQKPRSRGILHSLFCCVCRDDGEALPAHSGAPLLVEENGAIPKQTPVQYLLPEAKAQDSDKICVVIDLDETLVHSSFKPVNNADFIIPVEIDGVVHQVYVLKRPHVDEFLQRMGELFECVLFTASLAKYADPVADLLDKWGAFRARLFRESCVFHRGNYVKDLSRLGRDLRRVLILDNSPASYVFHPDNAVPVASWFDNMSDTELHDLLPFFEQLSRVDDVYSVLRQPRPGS

[20] = biological target: T5, Beta-adrenergic receptor kinase 1; assay: aptamer displacement from bead-bound GRK2 – biochemical, cherry pick 1, bead flow cytometry, dose response (AID 504500)

T5 sequence (P25098 whole entry): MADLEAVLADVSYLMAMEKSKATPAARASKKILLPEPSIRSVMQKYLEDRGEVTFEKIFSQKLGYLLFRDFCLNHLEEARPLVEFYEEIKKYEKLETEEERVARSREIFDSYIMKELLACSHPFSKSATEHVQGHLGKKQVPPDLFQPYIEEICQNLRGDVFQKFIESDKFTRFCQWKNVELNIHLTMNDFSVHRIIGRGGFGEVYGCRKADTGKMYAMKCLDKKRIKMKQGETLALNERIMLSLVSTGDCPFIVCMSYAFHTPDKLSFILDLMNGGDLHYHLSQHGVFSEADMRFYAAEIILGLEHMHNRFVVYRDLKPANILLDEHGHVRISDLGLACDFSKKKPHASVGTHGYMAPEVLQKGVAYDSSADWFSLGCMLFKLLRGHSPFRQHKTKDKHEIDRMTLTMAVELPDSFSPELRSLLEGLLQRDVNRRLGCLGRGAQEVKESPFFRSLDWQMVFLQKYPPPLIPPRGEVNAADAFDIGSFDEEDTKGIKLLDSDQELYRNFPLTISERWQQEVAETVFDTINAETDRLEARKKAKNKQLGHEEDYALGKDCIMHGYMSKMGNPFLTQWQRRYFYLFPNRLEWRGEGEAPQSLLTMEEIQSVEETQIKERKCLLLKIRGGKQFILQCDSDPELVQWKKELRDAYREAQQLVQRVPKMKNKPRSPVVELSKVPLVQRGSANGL
Voltage-gated inwardly rectifying potassium channel KCNH2, sequence (Q12809 whole entry): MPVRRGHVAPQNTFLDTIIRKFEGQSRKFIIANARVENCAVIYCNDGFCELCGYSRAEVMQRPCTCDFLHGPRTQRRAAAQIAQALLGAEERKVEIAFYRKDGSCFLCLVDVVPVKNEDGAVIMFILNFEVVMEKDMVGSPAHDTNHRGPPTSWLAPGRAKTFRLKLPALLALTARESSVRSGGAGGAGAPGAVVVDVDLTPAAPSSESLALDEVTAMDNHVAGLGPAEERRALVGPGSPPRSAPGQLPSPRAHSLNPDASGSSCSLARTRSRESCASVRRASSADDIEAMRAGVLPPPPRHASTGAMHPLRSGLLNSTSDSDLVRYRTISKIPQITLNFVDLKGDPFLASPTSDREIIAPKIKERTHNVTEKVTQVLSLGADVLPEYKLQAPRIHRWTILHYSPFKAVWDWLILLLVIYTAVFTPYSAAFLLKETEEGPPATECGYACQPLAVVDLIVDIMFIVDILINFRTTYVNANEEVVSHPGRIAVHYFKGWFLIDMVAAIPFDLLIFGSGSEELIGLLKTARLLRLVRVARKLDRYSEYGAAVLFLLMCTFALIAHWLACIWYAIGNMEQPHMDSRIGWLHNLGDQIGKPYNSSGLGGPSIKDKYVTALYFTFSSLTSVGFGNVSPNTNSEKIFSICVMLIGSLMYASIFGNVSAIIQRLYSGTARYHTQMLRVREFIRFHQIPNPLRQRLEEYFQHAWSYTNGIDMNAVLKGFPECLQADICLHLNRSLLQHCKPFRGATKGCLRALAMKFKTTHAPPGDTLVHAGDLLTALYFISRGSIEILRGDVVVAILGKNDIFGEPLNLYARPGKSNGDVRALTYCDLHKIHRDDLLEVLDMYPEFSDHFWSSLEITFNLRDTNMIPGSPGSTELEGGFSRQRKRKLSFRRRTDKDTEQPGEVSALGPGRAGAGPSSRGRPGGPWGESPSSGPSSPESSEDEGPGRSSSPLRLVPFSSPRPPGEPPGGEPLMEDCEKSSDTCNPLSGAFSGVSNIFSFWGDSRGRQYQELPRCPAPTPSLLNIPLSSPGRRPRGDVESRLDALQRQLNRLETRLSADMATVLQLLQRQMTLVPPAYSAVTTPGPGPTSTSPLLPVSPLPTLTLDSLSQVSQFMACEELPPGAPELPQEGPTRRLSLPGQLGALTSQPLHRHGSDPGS
Hepatocyte nuclear factor 4-alpha, sequence (P41235 whole entry, the tested form may be a part): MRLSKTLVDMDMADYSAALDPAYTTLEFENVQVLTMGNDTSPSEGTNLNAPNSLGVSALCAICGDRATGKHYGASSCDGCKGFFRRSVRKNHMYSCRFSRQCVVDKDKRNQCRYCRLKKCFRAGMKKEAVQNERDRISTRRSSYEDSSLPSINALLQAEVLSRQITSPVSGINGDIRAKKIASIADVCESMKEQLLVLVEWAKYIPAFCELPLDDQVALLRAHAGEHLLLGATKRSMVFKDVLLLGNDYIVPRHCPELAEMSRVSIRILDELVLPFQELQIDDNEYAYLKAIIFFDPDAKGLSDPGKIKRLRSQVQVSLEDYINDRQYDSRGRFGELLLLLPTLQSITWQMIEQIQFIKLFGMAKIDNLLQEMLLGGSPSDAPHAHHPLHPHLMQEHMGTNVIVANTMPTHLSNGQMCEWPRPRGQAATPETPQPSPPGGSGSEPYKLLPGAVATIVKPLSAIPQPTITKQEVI
Photoreceptor-specific nuclear receptor, sequence (Q9Y5X4 whole entry): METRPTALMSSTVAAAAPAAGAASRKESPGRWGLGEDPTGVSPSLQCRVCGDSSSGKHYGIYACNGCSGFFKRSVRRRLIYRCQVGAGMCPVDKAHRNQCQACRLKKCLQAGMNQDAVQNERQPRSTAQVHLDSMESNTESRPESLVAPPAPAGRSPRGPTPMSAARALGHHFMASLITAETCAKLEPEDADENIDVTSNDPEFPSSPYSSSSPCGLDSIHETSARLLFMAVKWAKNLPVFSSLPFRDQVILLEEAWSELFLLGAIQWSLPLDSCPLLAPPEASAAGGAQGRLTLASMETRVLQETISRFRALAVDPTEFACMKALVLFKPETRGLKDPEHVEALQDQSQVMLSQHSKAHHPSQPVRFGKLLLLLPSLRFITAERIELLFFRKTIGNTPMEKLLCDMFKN
Beta-galactosidase, sequence (Q8VNN2 whole entry): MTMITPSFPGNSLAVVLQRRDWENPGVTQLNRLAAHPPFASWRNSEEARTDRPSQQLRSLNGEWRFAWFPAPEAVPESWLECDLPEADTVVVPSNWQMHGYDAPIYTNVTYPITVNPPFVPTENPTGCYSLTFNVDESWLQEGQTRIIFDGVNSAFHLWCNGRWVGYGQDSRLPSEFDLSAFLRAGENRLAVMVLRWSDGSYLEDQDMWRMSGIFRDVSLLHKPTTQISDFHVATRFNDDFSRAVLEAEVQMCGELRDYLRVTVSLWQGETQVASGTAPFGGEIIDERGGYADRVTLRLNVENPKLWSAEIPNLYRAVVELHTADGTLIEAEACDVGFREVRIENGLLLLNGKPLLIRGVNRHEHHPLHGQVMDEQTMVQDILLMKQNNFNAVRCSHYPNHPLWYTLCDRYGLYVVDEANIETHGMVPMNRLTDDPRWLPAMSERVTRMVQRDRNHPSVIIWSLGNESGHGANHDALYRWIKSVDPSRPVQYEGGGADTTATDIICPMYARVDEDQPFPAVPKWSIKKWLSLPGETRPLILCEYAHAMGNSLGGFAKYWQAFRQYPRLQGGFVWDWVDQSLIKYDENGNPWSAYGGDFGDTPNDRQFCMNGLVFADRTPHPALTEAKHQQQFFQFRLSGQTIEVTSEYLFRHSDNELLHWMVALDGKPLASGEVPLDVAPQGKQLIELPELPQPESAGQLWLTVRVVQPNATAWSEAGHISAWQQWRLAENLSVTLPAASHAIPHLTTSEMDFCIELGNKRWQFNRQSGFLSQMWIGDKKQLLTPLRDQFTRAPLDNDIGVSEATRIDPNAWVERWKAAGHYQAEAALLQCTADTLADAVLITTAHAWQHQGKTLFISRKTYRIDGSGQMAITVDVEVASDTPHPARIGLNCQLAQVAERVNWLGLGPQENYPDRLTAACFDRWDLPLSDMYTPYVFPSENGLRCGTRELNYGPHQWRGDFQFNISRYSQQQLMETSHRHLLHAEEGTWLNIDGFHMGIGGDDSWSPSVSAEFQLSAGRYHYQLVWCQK
X-box-binding protein 1, sequence (P17861 whole entry): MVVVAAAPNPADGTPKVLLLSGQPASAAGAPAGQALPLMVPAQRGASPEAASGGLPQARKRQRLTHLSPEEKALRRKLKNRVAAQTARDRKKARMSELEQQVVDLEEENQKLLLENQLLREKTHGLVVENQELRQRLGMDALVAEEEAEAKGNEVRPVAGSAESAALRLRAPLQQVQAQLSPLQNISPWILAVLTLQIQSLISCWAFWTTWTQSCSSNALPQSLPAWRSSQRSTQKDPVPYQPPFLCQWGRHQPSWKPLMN
Latent membrane protein 1, sequence (P03230 whole entry): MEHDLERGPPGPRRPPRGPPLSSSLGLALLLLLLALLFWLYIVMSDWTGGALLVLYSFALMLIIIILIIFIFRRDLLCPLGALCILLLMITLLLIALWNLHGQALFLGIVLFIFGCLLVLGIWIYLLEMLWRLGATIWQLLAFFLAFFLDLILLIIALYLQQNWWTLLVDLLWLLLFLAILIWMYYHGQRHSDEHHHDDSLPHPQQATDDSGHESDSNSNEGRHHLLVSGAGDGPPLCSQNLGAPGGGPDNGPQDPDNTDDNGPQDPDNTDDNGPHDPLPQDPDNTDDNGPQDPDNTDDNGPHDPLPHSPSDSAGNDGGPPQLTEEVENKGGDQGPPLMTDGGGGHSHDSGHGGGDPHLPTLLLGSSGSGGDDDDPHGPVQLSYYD
Melanocortin receptor 4, sequence (P32245 whole entry): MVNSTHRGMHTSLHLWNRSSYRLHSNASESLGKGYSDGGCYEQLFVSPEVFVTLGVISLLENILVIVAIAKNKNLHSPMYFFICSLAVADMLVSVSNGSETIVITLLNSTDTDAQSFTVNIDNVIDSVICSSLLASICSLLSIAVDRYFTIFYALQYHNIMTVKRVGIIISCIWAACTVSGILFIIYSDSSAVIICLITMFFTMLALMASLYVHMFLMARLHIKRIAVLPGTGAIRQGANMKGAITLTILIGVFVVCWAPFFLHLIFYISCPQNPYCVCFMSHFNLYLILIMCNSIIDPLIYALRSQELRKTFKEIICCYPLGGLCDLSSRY
DNA damage-inducible transcript 3 protein, sequence (P35639 whole entry): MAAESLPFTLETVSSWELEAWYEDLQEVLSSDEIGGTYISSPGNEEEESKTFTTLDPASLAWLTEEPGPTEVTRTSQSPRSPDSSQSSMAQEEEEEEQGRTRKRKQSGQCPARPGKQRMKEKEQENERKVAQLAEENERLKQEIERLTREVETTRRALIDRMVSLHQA

## O=C(N/N=C/c1c[nH]c2ccccc12)C1CC1(c1ccccc1)c1ccccc1 (centres undefined)
[1]
  CC50: 16 µM (active)
[2]
  IC50: > 99 µM (inactive)
Caspase-3
  IC50: > 99 µM (inactive)
[3]
  EC50: 12.3 µM (active)
[4]
  IC50: > 99 µM (inactive)
[5]
  AC50: 4.64 µM (active)
Melanocortin receptor 4
  EC50: > 89.2 µM (inactive)
[6]
  IC50: > 99 µM (inactive)

## O=C1/C(=C/c2ccncc2)CCC/C1=C\c1ccncc1
[7]
  AC50: 8.7 µM (active)
BJ
  EC50: 0.474 µM (active)
X-box-binding protein 1
  Absolute IC50 (XBP1): 10 µM
[8]
  Absolute IC50 (CHOP): 10 µM
HeLa
  CC50: > 1.22 µM (not active)

## COc1ccc(C)c2sc(N(CCN(C)C)C(=O)/C=C/c3cccs3)nc12
[9]
  CC50: 12.7 µM (active)
A-375
  AC50: 43.2 µM (active)
[10]
  IC50: 35.2 µM (inactive)

## Cc1ccc(C(=O)COC(=O)CCC(=O)Nc2ccccc2Cl)cc1[N+](=O)[O-]
[11]
  IC50: 22.9 µM (not active)
Beta-galactosidase
  EC50: > 40 µM (inactive)

## CCN1C(=O)[C@@H]2[C@@H](c3ccc(-c4ccc(Cl)c(Cl)c4)cc3)N3CCC[C@@]3(C(=O)OC)[C@@H]2C1=O
[12]
  AC50: 70.2 µM (active)

## CC(=O)CC(C)C [METHYL ISOBUTYL KETONE]
[13]
  AC50: 15.8 µM (inconclusive)

## O=C(CCS(=O)(=O)c1ccc(Br)s1)Nc1ccccc1Br
[14]
  EC50: 20.9 µM (active)

## COC1=CC(=O)[C@]2(C=C1OC)OC[C@@H]1Oc3c(ccc4c3C=CC(C)(C)O4)C(=O)[C@@H]12
Jurkat
  IC50: 28.7 µM (inactive)
INS1
  AC50: 0.671 µM (active)
[15]
  IC50: 23 µM (inactive)

## CCc1ccccc1NC(=O)CCS(=O)(=O)c1ccc(OC)cc1
[16]
  EC50: > 195 µM (not active)
[17]
  IC50: 13.9 µM (not active)
[18]
  IC50: 16.8 µM (not active)
[19]
  IC50: 21.1 µM (active)
[20]
  EC50: 17.8 µM (inactive)
